Laboratory results as given in patent publication US5981551A, “2,5-diimino-3a,6a-diaryl-1,2,3,3a,4,5,6,6a-octahydroim idazo[4,5-d]imidazoles which are effective as G-CSF mimetics” (SmithKline Beecham Corporation, priority 1998, dated 1999).
Structures can show the parent of a compound that is named as a salt.

Target: T1, G-CSF receptor (Mus musculus, UniProt P40223)
T1 construct: NSF60 cells express endogenous G-CSF receptors; endogenous in cells; host or cells: NFS60 cells
T1 sequence (P40223 26-837): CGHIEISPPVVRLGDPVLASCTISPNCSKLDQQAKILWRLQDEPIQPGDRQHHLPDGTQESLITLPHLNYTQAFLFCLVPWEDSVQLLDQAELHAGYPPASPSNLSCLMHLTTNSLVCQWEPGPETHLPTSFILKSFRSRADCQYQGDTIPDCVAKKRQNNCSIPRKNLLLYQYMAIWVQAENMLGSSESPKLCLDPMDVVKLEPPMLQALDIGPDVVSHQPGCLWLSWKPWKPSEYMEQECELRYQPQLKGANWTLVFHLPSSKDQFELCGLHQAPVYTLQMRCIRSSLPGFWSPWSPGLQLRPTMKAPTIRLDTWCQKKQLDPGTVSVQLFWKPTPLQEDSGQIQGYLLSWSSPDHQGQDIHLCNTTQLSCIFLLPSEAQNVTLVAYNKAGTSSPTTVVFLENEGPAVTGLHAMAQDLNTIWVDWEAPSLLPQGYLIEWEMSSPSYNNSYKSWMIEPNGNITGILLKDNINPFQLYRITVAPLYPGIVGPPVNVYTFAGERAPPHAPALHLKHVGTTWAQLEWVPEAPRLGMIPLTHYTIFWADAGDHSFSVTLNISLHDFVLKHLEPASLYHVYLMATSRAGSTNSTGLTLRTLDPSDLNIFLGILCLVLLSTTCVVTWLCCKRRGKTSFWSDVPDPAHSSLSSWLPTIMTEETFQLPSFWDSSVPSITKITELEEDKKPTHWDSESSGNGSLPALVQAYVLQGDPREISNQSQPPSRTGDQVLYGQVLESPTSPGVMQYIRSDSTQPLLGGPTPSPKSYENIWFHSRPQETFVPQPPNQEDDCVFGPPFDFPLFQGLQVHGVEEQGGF
Test: Luciferase assay in NFS60 cells (G-CSF mimetic potency)
Type: cell-based
Details: concentration range of 1 to 32 uM
Description: Luciferase Assay […] Natl. Acad. Sci., USA 92: 3041-3045 (1995) by substituting NFS60 cells for the HepG2 cells utilized therein. The NFS60 cells (Holmes, et al., Proc. Natl. Acad. Sci. USA 82: 6687-6691 (1985)) were substituted for the HepG2 cells in the Lamb assay because the NSF60 cells express endogenous G-CSF receptors closely matching the pattern of STAT (signal transducers and activators of transcription) activation observed in primary murine and human bone marrow cells.

Row | Compound | activation, % of control, in the luciferase assay
1 | Cc1csc(N=C2NC3(c4ccccn4)NC(=Nc4nc(C)cs4)NC3(c3ccccn3)N2)n1 (stereo not drawn) [Example 13, 2,5-bis[(4-methyl-2-thiazolyl)imino]-3a,6a-bis(2-pyridyl)-1,2,3,3a,4,5,6a-octahydroimidazo[4,5-d]imidazole] | above 150 % of control
2 | c1ccc(C23NC(=Nc4nc5ccccc5o4)NC2(c2ccccn2)NC(=Nc2nc4ccccc4o2)N3)nc1 (stereo not drawn) [Example 14, 2,5-bis[2-benzoxazolylimino]-3a,6a-bis(2-pyridyl)-1,2,3a,4,5,6,6a-octahydroimidazo[4,5-d]imidazole] | ≤ 150 % of control
3 | Fc1ccc2nc(N=C3NC4(c5ccccn5)NC(=Nc5nc6ccccc6[nH]5)NC4(c4ccccn4)N3)[nH]c2c1.O=C(O)C(F)(F)F.O=C(O)C(F)(F)F (stereo not drawn) [Example 19, 5-(2-benzimidazolylimino)-2-[(5-fluoro-2-benzimidazolyl)imino]-3a,6a-bis(2-pyridyl)-1,2,3,3a,4,5,6,6a-octahydroimidazo[4,5-d]imidazole bis(trifluoroacetate) salt] | ≤ 150 % of control
4 | Fc1ccc2nc(N=C3NC4(c5ccccn5)NC(=Nc5nc6ccc(F)cc6[nH]5)NC4(c4ccccn4)N3)[nH]c2c1 (stereo not drawn) [Example 20, 2,5-bis[(5-fluoro-2-benzimidazolyl)imino]-3a,6a-bis(2-pyridyl-1,2,3,3a4,5,6,6a-octahydroimidazo[4,5-d]imidazolebis(trifluoroacetate) salt] | above 150 % of control
5 | Cc1cc2nc(N=C3NC4(c5ccccn5)NC(=Nc5nc6cc(C)c(C)cc6[nH]5)NC4(c4ccccn4)N3)[nH]c2cc1C (stereo not drawn) [Example 25, 2,5-bis[(5.6-dimethyl-2-benzimidazolyl)imino]-3a,6a-bis(2-pyridyl)-1,2,2a,4,5,6,6a-octahydroimidazo[4,5-d]imidazole bis(trifluoroacetate) salt] | above 150 % of control
6 | Cc1cc2nc(N=C3NC4(c5ccccn5)NC(=Nc5nc6ccccc6[nH]5)NC4(c4ccccn4)N3)[nH]c2cc1C (stereo not drawn) [Example 26, 5-[2-benzimidazolylimino]-2-[(5,6-dimethyl-2-benzimidazolyl)imino]-3a,6a-bis(2-pyridyl)-1,2,2a,4,5,6,6a-octahydroimidazo[4,5-d]imidazole bis(trifluoroacetate) salt] | above 150 % of control
7 | c1ccc(C23NC(=Nc4nc5ccccc5[nH]4)NC2(c2ccccn2)NC(=Nc2nc4ccccc4s2)N3)nc1 (stereo not drawn) [Example 30, 5-[2-benzimidazolylimino]-2-[2-benzothiazolylimino]-3a,6a-bis(2-pyridyl)-1,2,3a,4,5,6,6a-octahydroimidazo[4,5-d]imidazole bis(trifluoroacetate)] | above 150 % of control
8 | O=C(O)c1ccc2nc(N=C3NC4(c5ccccn5)NC(=Nc5nc6ccccc6[nH]5)NC4(c4ccccn4)N3)[nH]c2c1 (stereo not drawn) [Example 31, 5-[(2-benzimidazolylimino]1-2-[(5-carboxy-2-benzimidazolyl)imino]-3a,6a-bis(2-pyridyl)-1,2,3,3a,4,5,6,6a-octahydroimidazo[4,5-d]imidazolebis(trifluoroacetate) salt] | ≤ 150 % of control
9 | Ic1ccc2nc(N=C3NC4(c5ccccn5)NC(=Nc5nc6ccc(I)cc6[nH]5)NC4(c4ccccn4)N3)[nH]c2c1.O=C(O)C(F)(F)F.O=C(O)C(F)(F)F (stereo not drawn) [Example 32a, 2,5-bis[(5-iodo-2-benzimidazolyl)imino]-3a,6a-bis(2-pyridyl)-1,2,3,3a,4,5,6,6a-octahydroimidazo[4,5-d]imidazole bis(trifluoroacetate) salt] | ≤ 150 % of control
10 | Cc1ccc2nc(N=C3NC4(c5ccccc5)NC(=Nc5nc6ccccc6[nH]5)NC4(c4ccccn4)N3)[nH]c2c1.O=C(O)C(F)(F)F.O=C(O)C(F)(F)F (stereo not drawn) [Example 37, 5-(2-benzimidazolylimino)-2-[(5-methyl-2-benzimidazolyl)imino]-3a-(2-pyridyl)-6a-phenyl-1,2,3,3a,4,5,6,6a-octahydroimidazo[4,5-d]imidazole bis(trifluoroacetate) salt] | above 150 % of control
11 | Cc1ccc(C23NC(=Nc4nc5ccccc5n4C)NC2(c2ccc(C)cc2)NC(=Nc2nc4ccccc4n2C)N3)cc1 (stereo not drawn) [Example 39, 2,5-bis[(1-methyl-2-benzimidazolyl)imino]-3a,6a-bis(4-methylphenyl)-1,2,3,3a,4,5,6,6a-octahydromidazo[4,5-d]imidazole] | above 150 % of control
12 | Cn1c(N=C2NC3(c4ccc(Br)cc4)NC(=Nc4nc5ccccc5n4C)NC3(c3ccc(Br)cc3)N2)nc2ccccc21 (stereo not drawn) [Example 40, 2,5-bis[(1-methyl-2-benzimidazolyl)imino]-3a,6a-bis(4-bromophenyl)-1,2,3,3a,4,5,6,6a-octahydromidazo[4,5-d]imidazole] | ≤ 150 % of control

Next, values leading:

Row | activation, % of control, in the luciferase assay | Compound
13 | above 150 % of control | c1ccc(C23NC(=Nc4nc5ccccc5[nH]4)NC2(c2ccccn2)NC(=Nc2nc4ccccc4[nH]2)N3)nc1 (stereo not drawn) [Example 1]
14 | above 150 % of control | c1ccc(C23NC(=Nc4nc5ccccc5[nH]4)NC2(c2ccccc2)NC(=Nc2nc4ccccc4[nH]2)N3)cc1 (stereo not drawn) [Example 2]
15 | ≤ 150 % of control | c1coc(C23NC(=Nc4nc5ccccc5[nH]4)NC2(c2ccco2)NC(=Nc2nc4ccccc4[nH]2)N3)c1 (stereo not drawn) [Example 3, 2,5-bis[2-benzimidazolylimino]-3a,6a-bis(2-furyl)-1,2,3,3a,4,5,6,6a-bis(2-pyridyl)octahydroimidazo[4.5-d]imidazole]
16 | above 150 % of control | Ic1ccc2nc(N=C3NC4(c5ccccn5)NC(=Nc5nc6ccccc6[nH]5)NC4(c4ccccn4)N3)[nH]c2c1 (stereo not drawn) [Example 32b, 5-[2-benzimidazolylimino]-2-[(5-iodo-2-benzimidazolyl)imino]-3a,6a-bis(2-pyridyl)-1,2,2a,4,5,6,6a-octahydroimidazo[4,5-d]imidazole bis(trifluoroacetate) salt]
17 | ≤ 150 % of control | Brc1ccc(C23NC(=Nc4nc5ccccc5[nH]4)NC2(c2ccc(Br)cc2)NC(=Nc2nc4ccccc4[nH]2)N3)cc1 (stereo not drawn) [Example 33, 2,5-bis[2-benzimidazolylimino]-3a,6a-bis(4-bromophenyl)-1,2,3,3a,4,5,6,6a-octahydroimidazo[4,5-d]imidazole]
18 | above 150 % of control | FC(F)(F)c1ccc(C23NC(=Nc4nc5ccccc5[nH]4)NC2(c2ccc(C(F)(F)F)cc2)NC(=Nc2nc4ccccc4[nH]2)N3)cc1 (stereo not drawn) [Example 34, 2,5-bis[2-benzimidazolylimino]-3a,6a-bis(4-trifluoromethylphenyl)-1,2,3,3a,4,5,6,6a-octahydroimidazo[4,5-d]imidazole]
19 | above 150 % of control | Clc1cccc(C23NC(=Nc4nc5ccccc5[nH]4)NC2(c2ccccc2)NC(=Nc2nc4ccccc4[nH]2)N3)c1 (stereo not drawn) [Example 35, 2,5-bis[2-benzimidazolylimino]-3a-(3-chlorophenyl)-6a-phenyl-1,2,3,3a,4,5,6,6a-octahydroimidazo[4,5-d]imidazole]
20 | ≤ 150 % of control | Clc1ccccc1C12NC(=Nc3nc4ccccc4[nH]3)NC1(c1ccccc1)NC(=Nc1nc3ccccc3[nH]1)N2 (stereo not drawn) [Example 36, 2,5-bis[2-benzimidazolylimino]-3a-(2-chlorophenyl)-6a-phenyl-1,2,3,3a,4,5,6,6a-octahydroimidazo[4,5-d]imidazole]
21 | ≤ 150 % of control | Cn1c(N=C2NC3(c4ccccc4)NC(=Nc4nc5ccccc5n4C)NC3(c3ccccc3)N2)nc2ccccc21 (stereo not drawn) [Example 38, 2,5-bis[(1-methyl-2-benzimidazolyl)imino]-3a,6a-diphenyl-1,2,3,3a,4,5,6,6a-octahydromidazo[4,5-d]imidazole]
